Laboratory results as given in patent publication US12285397B2, “Use of (s)-3-amino-4-(difluoromethylenyl) cyclopent-1-ene-1-carboxylic acid and related compounds, (1S,3S)-3-amino-4-(difluoromethylidene) cyclopentane-1-carboxylic acid and vigabatrin in the treatment of developmental disorders” (Ovid Therapeutics Inc., priority 2018, dated 2025).

Columns and labels:
Assay type in all cases: in vivo, mouse
Fmr1 KO2 mice [1] = test: Open field repetitive behavior: counter revolutions (CCW), Fmr1 KO2 mice
Description: (§1) Mutant fmr1 knockout (KO) mice recapitulate the Fragile X syndrome (FXS) phenotype and represent a preclinical model for assessment of putative drug treatments. In this study three different mice models of FXS were used: Fmr1 KO1 is the original Fmr1 knockout animal that carries an insertion in exon 5. See, e.g., Bakker C E, et al., The Dutch-Belgian Fragile X Consortium, Fmr1 knockout mice: A model to study fragile X mental retardation. Cell. 1994; 78:23-33 It is a protein null, although Fmr1 mRNA is still present. It is backcrossed to the C57/B16 strain. Subsequently, these mice were bred into different background strains, such as the FVB inbred mouse strain. Fmr1 KO2 is a null allele at Fmr1 generated by deletion of the promoter and first exon of Fmr1. See, Mientjes, E J et al., The generation of a conditional Fmr1 knock out mouse model to study Fmrp function in vivo. Neurobiology of Disease (2006) 21(3): 549-555. It is both protein and mRNA null. Backcrossed to the C57/B16 strain. Genotyping was accomplished using TransnetXY Automated Genotyping (http://www.transnetyx.com/). TRANSNETYX, INC., 8110 Cordova Rd. Suite 119, Cordova, TN 38016, USA.
(§2) The mice were housed in plastic cages (35×30×12 cm), 5 in each and habituated to the animal facilities for at least a week before test. The room temperature (21±2° C.), relative humidity (55±5%), a 12-h light-dark cycle (lights on 7 a.m.-7 p.m.) and air exchange (16 times per h) were automatically controlled. The animals had free access to commercial food pellets and water. Testing was conducted during the light phase. Testing was conducted on Fmr1 knockout mice and their wild-type (WT) littermates. Ten mice per treatment group, 14 weeks of age, were used for behavioral experiments. Experiments were conducted in line with the requirements of the UK Animals (Scientific Procedures) Act, 1986.
(§3) Oral dosing was performed by using 1.5-in. curved, 20-gauge, stainless steel feeding needles with a 2.25-mm ball (Braintree Scientific, Braintree, MA). Each gavage treatment was given in 0.5% methyl cellulose (Methyl Cellulose M0512, Sigma-Aldrich, St Louis, MO) used as vehicle with or without treatment compounds. The same veterinarian, blinded to the treatment groups, performed the procedure, and documented animal reactions to oral gavage. Reactions considered to indicate stress were defined as excessive struggling during gavage or abnormal behavior after gavage (labored breathing, frozen stance, exaggerated jumping, shuddering, and hunched posture).
(§4) For experiments all mice were tested once in the same apparatus. Prior to testing, mice not in the study were placed in the apparatus for some minutes before the experiment. The apparatus was then cleaned with moist and dry tissues before testing each mouse. The aim was to create a low but constant background mouse odor for all experimental subjects. All experiments were conducted with the experimenters blind to genotype and drug treatment during all testing and data analysis. Separate investigators prepared and coded dosing solutions, allocated the mice to the study treatment groups, dosed the animals, and collected the behavioral data. Data were analyzed by one-way analysis of variance (ANOVA) followed by post-hoc comparisons where appropriate using Tukey's Multiple Comparison Test. Data are represented as the mean and standard error of the mean (SEM).
2. Open Field Repetitive Behaviors (stereotypies: anticlockwise circling (aka counter revolutions) (CCW) and self grooming). Fmr1 KO2 mice display the autism-like phenotypes of repetitive behaviors like CCW, self grooming and stereotypy that typically involves behaviors such as head bobbing. […]

Fmr1 KO1 mice [2] = test: Open field repetitive behavior: counter revolutions (CCW), Fmr1 KO1 mice
Description: as §1, §2, §3, §4
(§5) 2. Open Field Repetitive Behaviors (RB) (stereotypies: anticlockwise circling and self grooming). Fmr1 KO1 mice display the autism-like phenotypes of repetitive behaviors like counter revolutions (CCW), self grooming and stereotypy that typically involves behaviors such as head bobbing. […]

Fmr1 KO2 mice [3] = test: Hyponeophagia (anxiety, latency to eat), Fmr1 KO2 mice
Description: as §1, §2, §3, §4
4. Hyponeophagia (inhibition of feeding) is used as a measure of anxiety which can be produced by a novel environment, particularly in rodents. […]

Fmr1 KO1 mice [4] = test: Open field repetitive behavior: self grooming, Fmr1 KO1 mice
Description: as §1, §2, §3, §4, §5

## N[C@H]1C=C(C(=O)O)CC1=C(F)F [Compound, (S)-3-Amino-4-(difluoromethylenyl)cyclopent-1-ene-1-carboxylic acid]
Fmr1 KO2 mice [1]; 0.01 mg/Kg PO QD seven days
  Open field counter revolutions (CCW), WT-Veh vs. KO2-Compound: Significant?: Yes
Fmr1 KO2 mice [1]; 0.05 mg/Kg PO QD seven days
  Open field counter revolutions (CCW), WT-Veh vs. KO2-Compound: Significant?: No
  Open field counter revolutions (CCW), WT-Veh vs. KO2-Compound: Summary: ns
Fmr1 KO2 mice [1]; 0.1 mg/Kg PO QD seven days
  Open field counter revolutions (CCW), WT-Veh vs. KO2-Compound: Significant?: No
  Open field counter revolutions (CCW), WT-Veh vs. KO2-Compound: Summary: ns
Fmr1 KO2 mice [1]; 0.05 and 0.1 mg/Kg
  Effect on CCW revolutions phenotype (FIG. 2): rescued
Fmr1 KO1 mice [2]; 0.01 mg/Kg PO QD seven days
  Open field counter revolutions (CCW), WT-Veh vs. KO1-Compound: Significant?: Yes
Fmr1 KO1 mice [2]; 0.05 mg/Kg PO QD seven days
  Open field counter revolutions (CCW), WT-Veh vs. KO1-Compound: Significant?: No
  Open field counter revolutions (CCW), WT-Veh vs. KO1-Compound: Summary: ns
Fmr1 KO1 mice [2]; 0.1 mg/Kg PO QD seven days
  Open field counter revolutions (CCW), WT-Veh vs. KO1-Compound: Significant?: No
  Open field counter revolutions (CCW), WT-Veh vs. KO1-Compound: Summary: ns
Fmr1 KO1 mice [2]; 0.05 and 0.1 mg/Kg
  Effect on CCW repetitive behavior (FIG. 8): reversed CCW repetitive behavior
Fmr1 KO2 mice [3]; 0.01 mg/Kg PO QD seven days
  Hyponeophagia (latency to eat), WT-Veh vs. KO2-Compound: Significant?: Yes
Fmr1 KO2 mice [3]; 0.05 mg/Kg PO QD seven days
  Hyponeophagia (latency to eat), WT-Veh vs. KO2-Compound: Significant?: No
  Hyponeophagia (latency to eat), WT-Veh vs. KO2-Compound: Summary: ns
Fmr1 KO2 mice [3]; 0.1 mg/Kg PO QD seven days
  Hyponeophagia (latency to eat), WT-Veh vs. KO2-Compound: Significant?: No
  Hyponeophagia (latency to eat), WT-Veh vs. KO2-Compound: Summary: ns
Fmr1 KO2 mice [3]; 0.05 and 0.1 mg/Kg
  Effect on latency to eat in hyponeophagia test (FIG. 6): decreasing their latency to eat to virtually control levels
Fmr1 KO1 mice [4]; 0.01 mg/Kg PO QD seven days
  Self grooming (time spent grooming), WT-Veh vs. KO1-Compound: Significant?: Yes
Fmr1 KO1 mice [4]; 0.05 mg/Kg PO QD seven days
  Self grooming (time spent grooming), WT-Veh vs. KO1-Compound: Significant?: No
  Self grooming (time spent grooming), WT-Veh vs. KO1-Compound: Summary: ns
Fmr1 KO1 mice [4]; 0.1 mg/Kg PO QD seven days
  Self grooming (time spent grooming), WT-Veh vs. KO1-Compound: Significant?: No
  Self grooming (time spent grooming), WT-Veh vs. KO1-Compound: Summary: ns
Fmr1 KO1 mice [4]; 0.05 and 0.1 mg/Kg
  Time self-grooming compared with WT+veh (FIG. 9): did not differ from WT+veh
